Measurements reported in patent publication US12310946B2, “Pharmaceutical composition for oral administration of edaravone and method of administering same” (MITSUBISHI TANABE PHARMA CORPORATION, priority 2020, dated 2025).
Read-outs that look alike come from different tables or passages of the source.

Columns and labels:
[1] = Clinical study #10: PK of edaravone oral formulation (formula #7, 120 mg), standard meal 30 minutes after administration vs fasted; assay type: in vivo, human; details: 120 mg oral; for Cmax / Tmax / half-life / AUC(0-t): male, human, plasma, po, 120 mg, mean; for AUC(0-t): read-out: AUC0-24h
Experimental: Effects of meal consumption 30 minutes after administration of the edaravone oral formulation on the pharmacokinetics of edaravone were evaluated. Specifically, a clinical study #10 described below was conducted in Japanese healthy adult male subjects. In the clinical study #10, the edaravone oral formulation of the formula #7 (edaravone content of 120 mg) in Table 11 above was used and administered orally once during the study period. […]
As a post-administration consumption group, subjects in fasted conditions after a lapse of 10 hours or longer from meal consumption were orally administered with the edaravone oral formulation, […] Blood samples were each collected before the administration, and 15 minutes, 30 minutes, 1 hour, 1.5 hours, 2 hours, 4 hours, 6 hours, 8 hours, 12 hours, and 24 hours after the administration, and the concentrations of unchanged edaravone in plasma were measured. […] was carried out after the blood sample collection 30 minutes after the administration, and a subsequent meal was not consumed until the blood sample collection 4 hours after the administration was completed.
On the other hand, as a fasted group for reference, the edaravone oral formulation was administered orally to different subjects in fasted conditions, blood samples were collected, and the concentrations of unchanged edaravone in plasma were measured in the same manner.

[2] = Clinical study #2: PK of edaravone oral formulation (formula #2), fasted vs 4 h after high-fat meal; assay type: in vivo; details: male, human, plasma, 100 mg, 100 mg oral, mean (n = 9)
Experimental: Effects of meal consumption before administration of the edaravone oral formulation on the pharmacokinetics of edaravone were evaluated. Specifically, clinical studies #1, #2, and #3 described below were conducted on separate days in Japanese healthy adult male subjects. In each of clinical studies #1, #2, and #3, one dose each of edaravone oral formulations (edaravone suspensions) of formulas #1, #2, and #3 shown in Table 1 below were used respectively and administered orally once during the study period. For each clinical study, a reference study was conducted (reference example), in which the edaravone oral formulation was administered in fasted conditions as described below, and in each clinical study and the corresponding reference study, the edaravone oral formulation was each administered to the same subjects.
For the high-fat meal, a meal with total calories per meal of 800 to 1000 kilocalories and calorie intake from lipid of 50% was used. For the standard meal, a meal with total calories per meal of 400 to 500 kilocalories and calorie intake from lipid of 25% was used. For the light meal, a liquid-type nutritional supplement with total calories per meal of 250 kilocalories (enteral nutritional supplement: Ensure Liquid (trade name)) was used.
The edaravone oral formulation (formula #2) was administered orally to the subjects 4 hours after high-fat meal consumption. Blood samples were each collected before the administration, and 5 minutes, 15 minutes, 30 minutes, 1 hour, 1.5 hours, 2 hours, 4 hours, 6 hours, 8 hours, 12 hours, 24 hours, 36 hours, and 48 hours after the administration, and the concentrations of unchanged edaravone in plasma were measured. On the other hand, as a reference example, the edaravone oral formulation was administered orally to the same subjects in fasted conditions, blood samples were collected, and the concentrations of unchanged edaravone in plasma were measured in the same manner. For the administration in fasted conditions, the edaravone oral formulation was administered orally after a lapse of 10 hours or longer from the previous meal consumption. None of the subjects consumed a next meal until the blood sample collection 4 hours after the administration was completed.

[3] = Adsorption of edaravone to catheter in vitro (recovery after wash-in); assay type: physicochemical; details: regardless of the material of the catheter
Experimental: In administration using a catheter, catheters of various materials are used in medical facilities. Thus, whether administration is feasible with a catheter of any material was investigated by evaluating adsorption properties of catheters. That is, the edaravone oral formulation (#3) was passed through a catheter, and then the percentage of edaravone collected by washing in with water was evaluated.
Specifically, the edaravone oral formulation was loaded into a syringe for catheter administration to give an edaravone amount of 105 mg, and the edaravone oral formulation was passed from the syringe to each of the catheters. Water at a predetermined temperature was then injected into the catheter to wash in the edaravone oral formulation. The edaravone oral formulation that passed through the catheter and the wash-in liquid were collected and mixed, and an amount of edaravone contained in the mixed liquid was measured. The edaravone oral formulation was washed in under any of the following conditions: with 10 ml of water three times, with 30 ml of water at 25° C. or 40° C. once, or with 50 mL of water at 25° C. or 40° C. once. Three measurements were made for each catheter, and the mean and SD of recovery % were calculated.

[4] = Caco-2 cell monolayer membrane permeability test; details: human, Caco-2, pH 7.4
Experimental: Caco-2 cells were seeded on a 24-well plate, cultured at 37° C. for 21 to 23 days in a CO2 incubator, and then a Caco-2 cell monolayer membrane permeability test was conducted. After checking the membrane resistance value of the cell layer after the culture, the culture medium in the plate was replaced with HBSS (pH 7.4). […] For the control compounds, [^3H]propranolol as a high membrane permeability control and [^14C]mannitol as a low membrane permeability control were used.

[5] = Clinical study #5: PK of edaravone oral formulation (formula #3) in ALS patients, oral, fasted; assay type: in vivo, human; details: for difference in the AUC between the patient group and the reference group / difference in the Cmax between the patient group and the reference group: ALS patients oral vs healthy oral; for Cmax: po, 105 mg
Experimental: To evaluate the pharmacokinetics of edaravone in ALS patients, a clinical study #5 shown below was conducted in ALS patients who can live daily life independently (the patient group).
The edaravone oral formulation was administered orally to the patient group in fasted conditions after a lapse of 10 hours or longer from consumption of a meal. In the patient group, ALS patients who had been already administered with an edaravone intravenous infusion formulation were orally administered with the edaravone oral formulation after a lapse of 48 hours or longer from the time of completion of the previous administration of the intravenous infusion formulation. The same edaravone oral formulation as the formula #3 in Table 1 above was used. Then, blood samples were each collected before the administration, and 5 minutes, 15 minutes, 30 minutes, 45 minutes, 1 hour, 1.5 hours, 2 hours, 4 hours, 6 hours, 8 hours, 10 hours, 12 hours, and 24 hours after the administration, and the concentrations of unchanged edaravone in plasma were measured.
The resulting PK parameters were corrected for body weight of each subject adjusted to 70 kg by a proportional calculation for each of the patient group and the reference group. In addition, the results of the PK parameters after correction of the patient group are shown as box-whisker plots of #9 (the reference group), and individual plots of #5 (the patient group) and #9 (the reference group) in FIG. 3. In FIG. 3, X represents a mean value. […] Thus, the difference in the Cmax and the difference in the AUC before weight correction between the patient group and the reference group seen in Table 9 below are considered due to the difference in body weight between the patient group and the reference group, and the difference in the Cmax and the difference in the AUC after weight correction between the patient group and the reference group observed in FIG. 3 are each considered to be within the range of error.

[6] = standard meal 30 minutes after administration vs fasted
[7] = formula #7, 30 min before low-fat meal (n = 6)
[8] = formula #2, 4 h after high-fat meal
[9] = after weight correction (70 kg)
[10] = human, plasma, 105 mg oral, fasted, ALS patients (n = 9), mean, before weight correction

decrease in the AUC in comparison with the fasted group [1, 6]: about 14.5% | decrease in the Cmax in comparison with the fasted group [1, 6]: about 12.6% | Cmax [1, 7]: 1950 ng/mL | Tmax [1, 7]: 25.2 min | half-life [1, 7]: 276 min | AUC(0-t) [1, 7]: 1920 ng·h/mL | Cmax ([1]; formula #7, fasted (n = 6)): 1740 ng/mL | Tmax ([1]; formula #7, fasted (n = 6)): 22.8 min | half-life ([1]; formula #7, fasted (n = 6)): 308 min | AUC(0-t) ([1]; formula #7, fasted (n = 6)): 2240 ng·h/mL | AUC(0-inf) [2, 8]: 1250 ng·h/mL | Cmax [2, 8]: 1010 ng/mL | Tmax [2, 8]: 28.2 min | half-life [2, 8]: 460 min | AUC(0-inf) ([2]; formula #2, fasted): 1650 ng·h/mL | Cmax ([2]; formula #2, fasted): 1810 ng/mL | Tmax ([2]; formula #2, fasted): 21.6 min | half-life ([2]; formula #2, fasted): 560 min | adsorption of edaravone on the catheters [3]: No adsorption | Papp A→B at 2 h, 100 μmol/L [4]: 32 ± 1.7 ×10⁻⁶ cm/s | difference in the AUC between the patient group and the reference group [5, 9]: 5.8% | difference in the Cmax between the patient group and the reference group [5, 9]: 9.8% | difference in the AUC between the patient group and the reference group ([5]; before weight correction): 1.5% | difference in the Cmax between the patient group and the reference group ([5]; before weight correction): 15% | Cmax ([5]; human, plasma, 105 mg oral, ALS patients, corrected to 70 kg, read-out: Cmax after weight correction, mean value±standard error): 1610 ± 231 ng/mL | Cmax ([5]; human, plasma, 105 mg oral, fasted, ALS patients (n = 9), mean, before weight correction, read-out: Cmax): 1900 ng/mL | AUC ([5]; human, plasma, 105 mg oral, ALS patients, corrected to 70 kg, read-out: AUC after weight correction, mean value±standard error): 1460 ± 166 ng·h/mL | AUC(0-inf) [5, 10]: 1740 ng·h/mL | Tmax [5, 10]: 18.6 min
Structure (SMILES): CC1=NN(c2ccccc2)C(=O)C1 [Edaravone, 3-methyl-1-phenyl-2-pyrazolin-5-one]
